According to US20210337817A1, “COMPOUNDS AND FORMULATIONS FOR PROTECTIVE COATINGS” (Apeel Technology, Inc., priority 2018, published 2021):
“Also recorded” adds a separate entry of the source.

Tests used:
finger limes = test: Average daily mass loss rate of coated finger limes; conditions: coating agent 10 mg/mL in ethanol, 23-27° C., humidity 40-55%, untreated 5.3%
From the text: As used herein, the “mass loss rate” refers to the rate at which the product loses mass (e.g. by releasing water and other volatile compounds). The mass loss rate is typically expressed as a percentage of the original mass per unit time (e.g. percent per day).
FIG. 1 is a graph showing average daily mass loss rates for finger limes coated with various mixtures of PA-2G and PA-1G measured over the course of several days. Each bar in the graph represents average daily mass loss rates for a group of 24 finger limes. The finger limes corresponding to bar 102 were untreated. The finger limes corresponding to bar 104 were coated with a coating agent that was substantially pure PA-1G. The finger limes corresponding to bar 106 were coated with a coating agent that was about 75% PA-1G and 25% PA-2G by mass. The finger limes corresponding to bar 108 were coated with a coating agent that was about 50% PA-1G and 50% PA-2G by mass. The finger limes corresponding to bar 110 were coated with a coating agent that was about 25% PA-1G and 75% PA-2G by mass. The finger limes corresponding to bar 112 were coated with a coating agent that was substantially pure PA-2G. The coating agents were each dissolved in ethanol at a concentration of 10 mg/mL to form solutions, and the solutions were applied to the surface of the corresponding finger limes to form the coatings. […]

[1] = Contact angle on paraffin wax, direct or primed surface; type: physicochemical; conditions: paraffin wax primed with CA-1G 3 mg/mL in water and dried, then pure water drops
Method: For bar 1601, the solvent was pure water. […] The mixture corresponding to bar 1603 was the same as that of bar 1602 but also included 3 mg/mL of CA-1G. For bar 1604, a mixture of CA-1G at a concentration of 3 mg/mL in water was first deposited on the surface of the paraffin wax and then allowed to dry in order to prime the surface. Afterward, the contact angle of water on the primed surface was determined. For bar 1605, a mixture of CA-1G at a concentration of 3 mg/mL in water was first deposited on the surface of the paraffin wax and then allowed to dry in order to prime the surface. Afterward, the contact angle of a mixture of SA-1G and SA-Na at a mass ratio of 95:5 dispersed in water at a concentration of 45 mg/mL on the primed surface was determined.

avocados = test: Skin damage of treated avocados (photograph); conditions: 5 mg/mL in water, no long chain fatty acid esters/salts (FIG. 5)
From the text: Medium chain fatty acids (e.g., having a carbon chain length in a range of 7 to 13) and/or salts or esters thereof can also be used as coating agents to form coatings over produce or other plant matter or agricultural products using the methods described above.
[…] […] Prior to treatment, the avocado skin was virtually entirely green (not shown).

Structure (SMILES)	average daily mass loss rate (finger limes) [% per day]	other results
CCCCCCCCCCCCCCCC(=O)OC(CO)CO [PA-2G, 1,3-dihydroxypropan-2-yl palmitate]	3.7	
CCCCCCCCCC(=O)OCC(O)CO (stereo not shown) [CA-1G, 2,3-dihydroxypropan-1-yl decanoate]		average contact angle of water on primed surface [1]: 24 °
CCCCCCCCCCC(=O)OCC(O)CO (stereo not shown) [UA-1G, 2,3-dihydroxypropan-1-yl undecanoate]		skin damage of avocados after treatment (avocados): high density of black discolored regions; also recorded: extensive skin damage
CCCCCCCCCCCCCCCC(=O)OCC(O)CO (stereo not shown) [PA-1G, 2,3-dihydroxypropan-1-yl palmitate]	4.3	
